We go through 3 compounds from patent publication US20260115267A1, “METHODS OF USING ANTI-EGF ANTIBODIES TO AUGMENT THE ACTIVITY OF BRAF AND KRAS INHIBITORS” (In3Bio Ltd., priority 2021, published 2026).

Each structure is given as a SMILES string.

Assay [1] has as its system HT29 cells. Description: Emergence of resistance to encorafenib in HT29 cells (FIGS. 5-8). It counts as cell-based. How it is done:
FIGS. 5A-B are graphs that show the emergence of resistance to Encorafenib in the HT29 cell line across an incubation time of 3 weeks and measured by the percentage of cell viability. Cells were treated with 5 μM Encorafenib (FIG. 5A) or 10 μM Encorafenib (FIG. 5B) and incubated with EGF at 0.0 ng/mL, 0.1 ng/mL, Ing/mL, and 10 ng/mL.
FIGS. 6A-B are graphs that show the emergence of resistance to Encorafenib in the HT29 cell line across an incubation time of 15 weeks and measured by the percentage of cell viability.
FIGS. 7A-B are graphs that show the emergence of resistance to Encorafenib in the HT29 cell line across an incubation time of 15 weeks and measured by the percentage of cell viability. […] All tests were conducted at 1.0 ng/ml EGF
FIGS. 8A-B are graphs that show the emergence of resistance to 10 μM Encorafenib in the HT29 cell line with an incubation time of 90 days and measured by the percentage of tumor cell-free wells.
The effect of cells incubated with 5 μM encorafenib and treated with different concentrations of EGF were tested for cell viability during 3 weeks of incubation.
Next, the effects on cells incubated with 0.1 ng/mL EGF were tested.
The effects on cells incubated with 1.0 ng/mL EGF were tested over 15 weeks. The same conditions were repeated as in FIGS. 6A-B with the only difference being the 10-fold increase in EGF (FIG. 7A).
Lastly, the effects of HT29 cells incubated with 0.1 ng/ml and 1.0 ng/mLEGF were tested over a course of 90 days (FIGS. 8A-B).

Assay [2] concerns pEGFR(Tyr1068), pPRAS40(Thr 246) in HT29 cells. Put plainly: Western blot of total and phosphorylated EGFR and PRAS40 in HT29 cells with EGF, 2 hours (FIG. 4). It is filed as cell-based. Particulars: cetuximab 1/75, encorafenib 0.05 μM. The text has this:
C in the first lane stands for control, non-treated cell line sample. The second lane is the same control cell receiving EGF.
C in the first lane stands for control, non-treated cell line sample. Second lane is same control cell receiving EGF.

For assay [3] the following is noted: clinical data, BRAF V600E mutation-positive advanced melanoma; cited from earlier work.
Assay [4] deals with EGFR-mut NSCLC cell lines. Particulars: cited from earlier work.
The mark [5] stands for this setting: 10 μM versus 5 μM encorafenib, EGF 0.0-10 ng/mL, 3 weeks.

Regarding `COC(=O)N[C@@H](C)CNc1nccc(-c2cn(C(C)C)nc2-c2cc(Cl)cc(NS(C)(=O)=O)c2F)n1` [Encorafenib], the “growth of positive cells (emergence of resistance)” value in assay [1] (0.1 ng/mL EGF, encorafenib 10 μM, 15 weeks) is reported as “allows the growth of positive cells to a much greater extent”. Also, the “positive growth (emergence of resistance)” value in assay [1] (1.0 ng/mL EGF, 15 weeks) is on record as “resistance”. Moreover, in assay [1] (setting [5]), the “proliferation / percentage of viable cells (positive wells)” value is listed as “substantially lower” and the “time point at which resistance began” value was “earlier time point”. In assay [1] (10 μM versus 5 μM encorafenib, EGF 0.0-10 ng/mL, 3 weeks, listed as encorafenib), the “proliferation / percentage of viable cells (positive wells)” value is “lower proliferation of cells than with 5 μM encorafenib, but not by much”. In addition, the “inhibition of pPRASO” value in assay [2] is given as “did not inhibit”.
Turning to `CC(C)(C)c1nc(-c2cccc(NS(=O)(=O)c3c(F)cccc3F)c2F)c(-c2ccnc(N)n2)s1` [dabrafenib, Dabrafenib], the “time to occurrence of resistance” value in assay [3] is given as “within six to seven months”.
For the compound `C=CC(=O)Nc1cc(Nc2nccc(-c3cn(C)c4ccccc34)n2)c(OC)cc1N(C)CCN(C)C` [osimertinib], the “antiproliferative effects of the TKI when EGF is present” value in assay [4] is “significantly reduced”.
